Measurements reported in PMC10006169, “A phase I trial of LXS196, a protein kinase C (PKC) inhibitor, for metastatic uveal melanoma” (British Journal of Cancer, 2023).
Where “and” joins values, the source holds several entries; their conditions need not be identical. Equal entries are not always repeated.

Test system: patients with MUM
Assay: Adverse events regardless of study drug relationship
Type: in vivo, human
Method: Routine safety assessments, including laboratory assessments, physical examinations, vital signs and electrocardiograms (ECGs), were conducted at regular intervals throughout the study and more frequently as needed following patient assessment by the treating physician. Adverse events (AEs) were assessed continuously according to the National Cancer Institute Common Terminology Criteria for Adverse Events (NCI-CTCAE) v4.03.

`CC1(N)CCN(c2cccnc2NC(=O)c2nc(-c3ncccc3C(F)(F)F)cnc2N)CC1` [LXS196] was tested. Which “ALT increased, all grades” value (All BID) did it give?
The value was 9 (30.0) n (%).

What about the “ALT increased, grade ≥3” value (All BID) of the same compound?
Its value is 2 (6.7) n (%).

And the “AST increased, all grades” value (All BID)?
Its value is 8 (26.7) n (%).

What about the “AST increased, grade ≥3” value (All BID) of the same compound?
The value was 3 (10.0) n (%).

And the “Abdominal pain upper, all grades” value (All BID)?
Its value is 3 (10.0) n (%).

What about the “Abdominal pain upper, grade ≥3” value (All BID) of the same compound?
The value was 0 n (%).

And the “Asthenia, all grades” value (All BID)?
Its value is 7 (23.3) n (%).

What about the “Asthenia, grade ≥3” value (All BID) of the same compound?
Its value is 0 n (%).

What about the “Blood creatinine increased, all grades” value (All BID) of the same compound?
The value was 5 (16.7) n (%).

And the “Blood creatinine increased, grade ≥3” value (All BID)?
The value was 0 n (%).

And the “Constipation, all grades” value (All BID)?
Its value is 7 (23.3) n (%).

And the “Constipation, grade ≥3” value (All BID)?
The value was 0 n (%).

What about the “Decreased appetite, all grades” value (All BID) of the same compound?
The value was 5 (16.7) n (%).

What about the “Decreased appetite, grade ≥3” value (All BID) of the same compound?
The value was 0 n (%).

What about the “Dermatitis acneiform, all grades” value (All BID) of the same compound?
Its value is 5 (16.7) n (%).

What about the “Dermatitis acneiform, grade ≥3” value (All BID) of the same compound?
Its value is 0 n (%).

And the “Diarrhoea, all grades” value (All BID)?
The value was 17 (56.7) n (%).

What about the “Diarrhoea, grade ≥3” value (All BID) of the same compound?
Its value is 1 (3.3) n (%).

What about the “Dry skin, all grades” value (All BID) of the same compound?
Its value is 6 (20.0) n (%).

And the “Dry skin, grade ≥3” value (All BID)?
Its value is 0 n (%).

What about the “Fatigue, all grades” value (All BID) of the same compound?
The value was 7 (23.3) n (%).

And the “Fatigue, grade ≥3” value (All BID)?
Its value is 0 n (%).

And the “Hypotension, all grades” value (All BID)?
The value was 7 (23.3) n (%).

And the “Hypotension, grade ≥3” value (All BID)?
The value was 1 (3.3) n (%).

And the “Nasopharyngitis, all grades” value (All BID)?
The value was 3 (10.0) n (%).

And the “Nasopharyngitis, grade ≥3” value (All BID)?
The value was 0 n (%).

And the “Nausea, all grades” value (All BID)?
Its value is 21 (70.0) n (%).

And the “Nausea, grade ≥3” value (All BID)?
Its value is 0 n (%).

What about the “Neutropenia, all grades” value (All BID) of the same compound?
Its value is 2 (6.7) n (%).

And the “Neutropenia, grade ≥3” value (All BID)?
The value was 0 n (%).

And the “Oedema peripheral, all grades” value (All BID)?
Its value is 8 (26.7) n (%).

What about the “Oedema peripheral, grade ≥3” value (All BID) of the same compound?
The value was 1 (3.3) n (%).

What about the “Patients with ≥1 AE, all grades” value (All BID) of the same compound?
The value was 30 (100) n (%).

And the “Patients with ≥1 AE, grade ≥3” value (All BID)?
The value was 15 (50.0) n (%).

And the “Rash, all grades” value (All BID)?
The value was 6 (20.0) n (%).

What about the “Rash, grade ≥3” value (All BID) of the same compound?
The value was 0 n (%).

What about the “Vomiting, all grades” value (All BID) of the same compound?
The value was 11 (36.7) n (%).

What about the “Vomiting, grade ≥3” value (All BID) of the same compound?
The value was 0 n (%).

And the “ALT increased, all grades” value (All QD)?
Its value is 9 (23.7) n (%).

What about the “ALT increased, grade ≥3” value (All QD) of the same compound?
Its value is 2 (5.3) n (%).

What about the “AST increased, all grades” value (All QD) of the same compound?
The value was 5 (13.2) n (%).

And the “AST increased, grade ≥3” value (All QD)?
Its value is 2 (5.3) n (%).

What about the “Abdominal pain upper, all grades” value (All QD) of the same compound?
Its value is 4 (10.5) n (%).

And the “Abdominal pain upper, grade ≥3” value (All QD)?
The value was 0 n (%).

And the “Asthenia, all grades” value (All QD)?
The value was 8 (21.1) n (%).

And the “Asthenia, grade ≥3” value (All QD)?
Its value is 0 n (%).

And the “Blood creatinine increased, all grades” value (All QD)?
Its value is 3 (7.9) n (%).

What about the “Blood creatinine increased, grade ≥3” value (All QD) of the same compound?
Its value is 0 n (%).

And the “Constipation, all grades” value (All QD)?
Its value is 10 (26.3) n (%).

And the “Constipation, grade ≥3” value (All QD)?
The value was 0 n (%).

What about the “Decreased appetite, all grades” value (All QD) of the same compound?
The value was 5 (13.2) n (%).

What about the “Decreased appetite, grade ≥3” value (All QD) of the same compound?
The value was 0 n (%).

What about the “Dermatitis acneiform, all grades” value (All QD) of the same compound?
Its value is 2 (5.3) n (%).

What about the “Dermatitis acneiform, grade ≥3” value (All QD) of the same compound?
The value was 0 n (%).

And the “Diarrhoea, all grades” value (All QD)?
Its value is 20 (52.6) n (%).

And the “Diarrhoea, grade ≥3” value (All QD)?
Its value is 0 n (%).

What about the “Dry skin, all grades” value (All QD) of the same compound?
Its value is 3 (7.9) n (%).

And the “Dry skin, grade ≥3” value (All QD)?
The value was 0 n (%).

And the “Fatigue, all grades” value (All QD)?
Its value is 12 (31.6) n (%).

And the “Fatigue, grade ≥3” value (All QD)?
Its value is 0 n (%).

And the “Hypotension, all grades” value (All QD)?
Its value is 8 (21.1) n (%).

What about the “Hypotension, grade ≥3” value (All QD) of the same compound?
The value was 5 (13.2) n (%).

What about the “Nasopharyngitis, all grades” value (All QD) of the same compound?
Its value is 4 (10.5) n (%).

And the “Nasopharyngitis, grade ≥3” value (All QD)?
Its value is 0 n (%).

And the “Nausea, all grades” value (All QD)?
The value was 27 (71.1) n (%).

And the “Nausea, grade ≥3” value (All QD)?
Its value is 1 (2.6) n (%).

What about the “Neutropenia, all grades” value (All QD) of the same compound?
The value was 5 (13.2) n (%).

What about the “Neutropenia, grade ≥3” value (All QD) of the same compound?
The value was 2 (5.3) n (%).

What about the “Oedema peripheral, all grades” value (All QD) of the same compound?
Its value is 5 (13.2) n (%).

And the “Oedema peripheral, grade ≥3” value (All QD)?
Its value is 0 n (%).

What about the “Patients with ≥1 AE, all grades” value (All QD) of the same compound?
The value was 36 (94.7) n (%).

And the “Patients with ≥1 AE, grade ≥3” value (All QD)?
The value was 14 (36.8) n (%).

What about the “Rash, all grades” value (All QD) of the same compound?
The value was 4 (10.5) n (%).

What about the “Rash, grade ≥3” value (All QD) of the same compound?
Its value is 0 n (%).

And the “Vomiting, all grades” value (All QD)?
Its value is 15 (39.5) n (%).

What about the “Vomiting, grade ≥3” value (All QD) of the same compound?
Its value is 1 (2.6) n (%).

What about the “ALT increased, all grades” value (All patients) of the same compound?
The value was 18 (26.5) n (%).

What about the “ALT increased, grade ≥3” value (All patients) of the same compound?
Its value is 4 (5.9) n (%).

And the “AST increased, all grades” value (All patients)?
The value was 13 (19.1) n (%).

And the “AST increased, grade ≥3” value (All patients)?
The value was 5 (7.4) n (%).

And the “Abdominal pain upper, all grades” value (All patients)?
The value was 7 (10.3) n (%).

And the “Abdominal pain upper, grade ≥3” value (All patients)?
Its value is 0 n (%).

And the “Asthenia, all grades” value (All patients)?
Its value is 15 (22.1) n (%).

What about the “Asthenia, grade ≥3” value (All patients) of the same compound?
Its value is 0 n (%).

What about the “Blood creatinine increased, all grades” value (All patients) of the same compound?
Its value is 8 (11.8) n (%).

What about the “Blood creatinine increased, grade ≥3” value (All patients) of the same compound?
The value was 0 n (%).

And the “Constipation, all grades” value (All patients)?
The value was 17 (25.0) n (%).

What about the “Constipation, grade ≥3” value (All patients) of the same compound?
The value was 0 n (%).

What about the “Decreased appetite, all grades” value (All patients) of the same compound?
The value was 10 (14.7) n (%).

What about the “Decreased appetite, grade ≥3” value (All patients) of the same compound?
The value was 0 n (%).

What about the “Dermatitis acneiform, all grades” value (All patients) of the same compound?
Its value is 7 (10.3) n (%).

What about the “Dermatitis acneiform, grade ≥3” value (All patients) of the same compound?
Its value is 0 n (%).

What about the “Diarrhoea, all grades” value (All patients) of the same compound?
The value was 37 (54.4) n (%).

And the “Diarrhoea, grade ≥3” value (All patients)?
The value was 1 (1.5) n (%).

What about the “Dry skin, all grades” value (All patients) of the same compound?
Its value is 9 (13.2) n (%).

And the “Dry skin, grade ≥3” value (All patients)?
Its value is 0 n (%).

And the “Fatigue, all grades” value (All patients)?
Its value is 19 (27.9) n (%).

And the “Fatigue, grade ≥3” value (All patients)?
Its value is 0 n (%).

And the “Hypotension, all grades” value (All patients)?
Its value is 15 (22.1) n (%).

And the “Hypotension, grade ≥3” value (All patients)?
Its value is 6 (8.8) n (%).

What about the “Nasopharyngitis, all grades” value (All patients) of the same compound?
The value was 7 (10.3) n (%).

What about the “Nasopharyngitis, grade ≥3” value (All patients) of the same compound?
The value was 0 n (%).

And the “Nausea, all grades” value (All patients)?
The value was 48 (70.6) n (%).

And the “Nausea, grade ≥3” value (All patients)?
Its value is 1 (1.5) n (%).

And the “Neutropenia, all grades” value (All patients)?
The value was 7 (10.3) n (%).

What about the “Neutropenia, grade ≥3” value (All patients) of the same compound?
The value was 2 (2.9) n (%).

And the “Oedema peripheral, all grades” value (All patients)?
Its value is 13 (19.1) n (%).

And the “Oedema peripheral, grade ≥3” value (All patients)?
Its value is 1 (1.5) n (%).

What about the “Patients with ≥1 AE, all grades” value (All patients) of the same compound?
The value was 66 (97.1) n (%).

What about the “Patients with ≥1 AE, grade ≥3” value (All patients) of the same compound?
The value was 29 (42.6%) n (%) and 29 (42.6) n (%).

What about the “Rash, all grades” value (All patients) of the same compound?
The value was 10 (14.7) n (%).

What about the “Rash, grade ≥3” value (All patients) of the same compound?
The value was 0 n (%).

What about the “Vomiting, all grades” value (All patients) of the same compound?
Its value is 26 (38.2) n (%).

And the “Vomiting, grade ≥3” value (All patients)?
Its value is 1 (1.5) n (%).

What about the “AE leading to discontinuation of LXS196” value (SAE grade 3/4, one patient, BID schedule) of the same compound?
The value was “hepatic failure”.
